This assay concerns Rattus norvegicus. In words: Antihyperglycemic activity in normoglycemic male albino Sprague-Dawley rat assessed as improvement in sucrose tolerance at 100 mg/kg, po by Oral sucrose tolerance test. The class given is functional.

Activity data for 13 molecules are collected here from ChEMBL document CHEMBL3425487, “Synthesis of new thiazolylmethoxyphenyl pyrimidines and antihyperglycemic evaluation of the pyrimidines, analogues isoxazolines and pyrazolines” (2015).

Turning to `CN(C)C(=N)NC(=N)N` [METFORMIN], the Activity was 14.1%.
The figure for `COc1ccc(C2=NOC(c3ccc(OCc4csc(-c5ccccc5)n4)cc3)C2)cc1` (stereo not drawn) is 8.37%; for `O=[N+]([O-])c1ccc(C2=NNC(c3ccc(OCc4csc(-c5ccccc5)n4)cc3)C2)cc1` (stereo not drawn) it is 2.47%.
Then `Fc1ccc(C2=NNC(c3ccc(OCc4csc(-c5ccccc5)n4)cc3)C2)cc1` (stereo not drawn), with 10.4%; and `O=[N+]([O-])c1ccc(C2=NOC(c3ccc(OCc4csc(-c5ccccc5)n4)cc3)C2)cc1` (stereo not drawn), with 0.91%; and `Fc1ccc(C2=NOC(c3ccc(OCc4csc(-c5ccccc5)n4)cc3)C2)cc1` (stereo not drawn), with 4.88%.
In the case of `c1ccc(C2=NNC(c3ccc(OCc4csc(-c5ccccc5)n4)cc3)C2)cc1` (stereo not drawn), the Activity was 7.42%.
The figure for `COc1ccc(C2=CC(c3ccc(OCc4csc(-c5ccccc5)n4)cc3)NC(=S)N2)cc1` (stereo not drawn) is 1.05%.
Then `COc1ccc(C2=NNC(c3ccc(OCc4csc(-c5ccccc5)n4)cc3)C2)cc1` (stereo not drawn), with 0.85%; and `O=[N+]([O-])c1ccc(C2=CC(c3ccc(OCc4csc(-c5ccccc5)n4)cc3)NC(=S)N2)cc1` (stereo not drawn), with 7.04%.
Consider `S=C1NC(c2ccccc2)=CC(c2ccc(OCc3csc(-c4ccccc4)n3)cc2)N1` (stereo not drawn), for which the Activity is reported as 0.07%.
Then `Fc1ccc(C2=CC(c3ccc(OCc4csc(-c5ccccc5)n4)cc3)NC(=S)N2)cc1` (stereo not drawn), with 8.22%; and `c1ccc(C2=NOC(c3ccc(OCc4csc(-c5ccccc5)n4)cc3)C2)cc1` (stereo not drawn), with 2.73%.
